One data set is filed under the species Homo sapiens. Put plainly: Selectivity index, ratio of IC50 for human MAO-A to IC50 for human MAO-B.
Data set [1] has as its target T1, Amine oxidase [flavin-containing] A (Homo sapiens, UniProt P21397).
T1 sequence (P21397 whole entry): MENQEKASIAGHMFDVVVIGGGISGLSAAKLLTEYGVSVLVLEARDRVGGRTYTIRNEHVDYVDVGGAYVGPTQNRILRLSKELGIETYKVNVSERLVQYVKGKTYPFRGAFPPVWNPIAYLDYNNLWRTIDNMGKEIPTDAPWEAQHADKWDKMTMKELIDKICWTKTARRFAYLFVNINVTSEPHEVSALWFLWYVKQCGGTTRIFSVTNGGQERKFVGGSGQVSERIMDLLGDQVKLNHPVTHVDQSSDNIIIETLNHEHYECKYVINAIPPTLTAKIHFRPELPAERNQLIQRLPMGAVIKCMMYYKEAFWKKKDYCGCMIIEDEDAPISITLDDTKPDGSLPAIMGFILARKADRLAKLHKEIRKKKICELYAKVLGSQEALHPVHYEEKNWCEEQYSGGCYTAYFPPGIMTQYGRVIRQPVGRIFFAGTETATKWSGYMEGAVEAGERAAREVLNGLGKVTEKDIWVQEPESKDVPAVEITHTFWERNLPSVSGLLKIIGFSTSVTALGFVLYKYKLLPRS
The data set can be described thus: Inhibition of human MAO-A at 200 uM using p-tyramine as substrate preincubated for 15 mins followed by substrate addition measured after 20 mins by fluorescence-based Amplex Red MAO assay.

Data set [2] relates to PC-12. Put plainly: Neuroprotective activity against H2O2-induced apoptosis in rat PC12 cells assessed as viable cells level at 12.5 uM after 24 hrs by Annexin V/FITC/propidium iodide staining-based flow cytometry (reference value: 96.2%). The class given is functional. On the technique in general: In flow cytometry, cells or beads pass a laser one at a time.
The subject of data set [3] is PC-12. The data set can be described thus: Neuroprotective activity against H2O2-induced apoptosis in rat PC12 cells assessed as early apoptosis cells level at 12.5 uM after 24 hrs by Annexin V/FITC/propidium iodide staining-based flow cytometry (reference value: 1.8%). Type of data set: functional.
Data set [4] has as its system PC-12. The data set can be described thus: Neuroprotective activity against H2O2-induced apoptosis in rat PC12 cells assessed as viable cells level at 25 uM after 24 hrs by Annexin V/FITC/propidium iodide staining-based flow cytometry (reference value: 96.2%). Type of data set: functional.
The subject of data set [5] is PC-12. Put plainly: Neuroprotective activity against H2O2-induced apoptosis in rat PC12 cells assessed as viable cells level at 50 uM after 24 hrs by Annexin V/FITC/propidium iodide staining-based flow cytometry (reference value: 96.2%). Type of data set: functional.

`Oc1ccc(/C=N/c2ccc(OCc3ccccc3)cc2)c(O)c1O`: the Ratio IC50 in the data set filed under Homo sapiens was over 57.8. Besides, in data set [1], the “inhibition (INH)” value is recorded as “Not Active”. Further, the Activity with PC-12 [2] was determined as 69.8%; in the data set on PC-12 [3], 25.7%; with PC-12 [4], 87.7%; in the data set with PC-12 [5] it was 91.1%.

Values taken from ChEMBL document CHEMBL4177594, “Design, synthesis, and evaluation of salicyladimine derivatives as multitarget-directed ligands against Alzheimer's disease” (Bioorg Med Chem, 2017).
